Results from PMC6017089, “Discovery of a Manduca sexta Allatotropin Antagonist from a Manduca sexta Allatotropin Receptor Homology Model” (Molecules : A Journal of Synthetic Chemistry and Natural …, 2018).
Where “and” joins values, the source holds several entries; their conditions need not be identical. Equal values may be shown once. Entries after “also recorded” stand apart in the source; their conditions may differ. Read-outs that look alike come from different tables or passages of the source. Non-standard residues stand in square brackets, D forms with d. Residues, ends and D or L forms follow the SMILES beside them. No end group written: not given here. *: point of attachment. Phe(4-Cl) = N[C@@H](Cc1ccc(Cl)cc1)C(=O)O; Phe(4-Me) = Cc1ccc(C[C@H](N)C(=O)O)cc1; Ala(cPr) = N[C@@H](CC1CC1)C(=O)O; Isobutyryl = CC(C)C(=O)*

Experiments:
[1] = target: T1, corpora allata (CA) of adult female M. sexta stimulated with Manse-AT (Manduca sexta, UniProt F1CZQ1); format: cell-based
T1 sequence (F1CZQ1 1-457): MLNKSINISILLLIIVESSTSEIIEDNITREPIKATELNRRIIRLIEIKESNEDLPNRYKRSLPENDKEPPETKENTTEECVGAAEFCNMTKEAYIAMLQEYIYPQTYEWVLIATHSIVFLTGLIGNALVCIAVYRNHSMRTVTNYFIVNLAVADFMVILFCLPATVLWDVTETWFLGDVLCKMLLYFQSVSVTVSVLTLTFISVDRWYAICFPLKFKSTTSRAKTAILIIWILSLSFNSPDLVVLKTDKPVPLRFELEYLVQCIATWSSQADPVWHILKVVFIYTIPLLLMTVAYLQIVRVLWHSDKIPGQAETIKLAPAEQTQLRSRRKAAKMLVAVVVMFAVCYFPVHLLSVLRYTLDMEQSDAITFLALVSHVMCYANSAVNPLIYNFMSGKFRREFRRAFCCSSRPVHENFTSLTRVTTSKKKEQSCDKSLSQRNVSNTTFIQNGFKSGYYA
Experimental: (§1) On the day of adult emergence (day 0), females were marked and maintained in the wooden chamber until used. The assays for JH biosynthesis were performed using CA from day 3 females. A pair of CA with corpora cardiaca attached were incubated for 3 h at 30 °C in 100 µL of medium 199 (GIBCO) with Hanks’ salts, L-glutamine, 25 mM HEPES buffer (pH 7.2) and 2% Ficoll in the dark with gentle shaking. Compounds were dissolved in medium 199 for assay as described previously and used on the same day that the peptides were prepared. After incubation, 200 µl n-hexane containing 20 ng of citronellol as an internal standard was mixed with the incubation medium and the mixture was centrifuged at 2500× g for 5 min. The organic phases (upper layer) were removed and transferred to the analyzed vials. For M. sexta, it is known that JH II and JH III are predominantly made in adult (they contribute 99% of total JH, together). The change of total JH II and JH III titer was used to estimate the effects of JH biosynthesis in this study. The quantitative assay for JH II and JH III titer was determined by GC-MS/MS as described previously. The retention time of JH II and JH III was 11.16 min and 10.36 min, respectively. The quantification transition for JH II was 107→105.4 (collsion energy: 45 eV). Its confirmation transitions were 81→79.6 (collsion energy: 40 eV), 121→119 (collsion energy: 40 eV), 121→104.9 (collsion energy: 15 eV) and 121→92.9 (collsion energy: 10 eV), respectively. For JH III, the quantification transition was […] (collsion energy: 10 eV), the confirmation transitions were 81→79.1 (collsion energy: 5 eV), 94.9→67.1 (collsion energy: 10 eV), 120.9→93 (collsion energy: 10 eV) and 120.9→105.1 (collsion energy: 15 eV), respectively. Compounds were dissolved in medium 199 for assay and used on the same day that the peptides were prepared. Each data point on the dose-response figure represents replicate incubations of 9–13 experimental CA compared to control CA (i.e., no peptide added). EC50 (stimulator concentration50 defined as the concentration of stimulator that provokes a response halfway between the baseline and maximum response) values of Manse-AT and analogs were calculated from the dose-response curves.
Antagonistic effects of Manse-AT antagonists were measured with the compound mixture solutions (varying concentrations of the antagonist added together with Manse-AT) compared with the stimulation effects of Manse-AT. Dose response curves of antagonist on the inhibition of JH stimulation of Manse-AT was obtained using different concentrations of antagonist mixed with 1 nM Manse-AT (Supplementary Materials, Figure S1). Each data point on the dose-response figure was calculated using the Formula (1). (RManse-AT − RMixture)/(RManse-AT − RControl) (1)
RManse-AT is the average JH biosynthesis rate of 1 nM Manse-AT, RMixture is the rate of mixture contained different concentration antagonist and 1 nM Manse-AT, RControl is the average rate of medium without any peptides.
(§2) Data presented as percentages were log-transformed before statistical analyses. Data were analysed using a one-way analysis of variance (ANOVA) with a Dunnett’s multiple comparison test as the post hoc determination of significance using Prism Graph Pad version 5.0 (GraphPad Software, San Diego, CA, USA). Dose-response curves were also prepared using the computer program GraphPad Prism. Values are expressed as mean ± standard errors (S.E.M.) with N indicating the number of samples measured.

[2] = target: T2, corpora allata (CA) of adult female M. sexta (Manduca sexta, UniProt F1CZQ1); test: Stimulation of JH biosynthesis in vitro by corpora allata; format: cell-based; conditions: for Stimulation of JH Biosynthesis EC50 (95% CI) / EC50: pair of CA with corpora cardiaca from day 3 females, 3 h at 30 °C in medium 199 pH 7.2, total JH II + JH III by GC-MS/MS, 9–13 repeats per concentration, 95% CI in brackets; for Stimulation of JH Biosynthesis: Stimulation at 1 μM: peptide 1 μM, CA from day 3 females, 3 h at 30 °C, mean ± SEM, repeat number in brackets, versus control CA without peptide; for fold less potent than Manse-AT (EC50, stimulation of JH biosynthesis): ratio of EC50 values to Manse-AT
T2 sequence (F1CZQ1 1-457): T1 sequence (F1CZQ1 1-457)
Experimental: as §1, §2

[3] = read-out: Antagonistic Effects on JH Biosynthesis IC50 (95% CI); antagonist at varying concentrations mixed with 1 nM Manse-AT; CA from day 3 females, 3 h at 30 °C; JH II + JH III by GC-MS/MS; 9–13 repeats per concentration; 95% CI in brackets
[4] = ratio of IC50 values to Manse-AT (10–13)
[5] = antagonist at varying concentrations mixed with 1 nM Manse-AT; CA from day 3 females, 3 h at 30 °C; JH II + JH III by GC-MS/MS; 9–13 repeats per concentration; 95% CI in brackets

C[C@H](N)C(=O)N[C@@H](CCCNC(=N)N)C(=O)NCC(=O)N[C@@H](Cc1ccccc1)C(N)=O [Manse-AT (10–13)] (H-ARGF-NH2)
IC50 [1, 3]: 0.9 nM
Stimulation of JH Biosynthesis EC50 (95% CI) [2]: cannot be calculated; also recorded: No effect
Stimulation of JH Biosynthesis: Stimulation at 1 μM [2]: 8.1± 17.6 (13) %

N=C(N)NCCC[C@H](NC(=O)CN)C(=O)NCC(=O)N[C@@H](Cc1ccccc1)C(N)=O [analog 1] (H-GRGF-NH2)
IC50 [1, 3]: 1.2 nM

CC(C)C[C@H](N)C(=O)N[C@@H](CCCNC(=N)N)C(=O)NCC(=O)N[C@@H](Cc1ccccc1)C(N)=O [analog 2] (H-LRGF-NH2)
IC50 [1, 3]: 35.4 nM

CC(C)C(=O)N[C@@H](CCCNC(=N)N)C(=O)NCC(=O)N[C@@H](Cc1ccccc1)C(N)=O [analog 3] (Isobutyryl-Arg-Gly-Phe-NH2)
IC50 ([1]; antagonist at varying concentrations mixed with 1 nM Manse-AT; CA from day 3 females, 3 h at 30 °C; JH II + JH III by GC-MS/MS; 9–13 repeats per concentration; 95% CI in brackets; read-out: Antagonistic Effects on JH Biosynthesis IC50 (95% CI)): 26.1 nM
fold less active than the lead Manse-AT (10–13) (IC50, antagonistic effect) [1, 4]: ~30 fold

C[C@H](N)C(=O)N[C@@H](CCCNC(=N)N)C(=O)N[C@@H](C)C(=O)N[C@@H](Cc1ccccc1)C(N)=O [analog 7] (H-ARAF-NH2)
IC50 [1, 3]: 17.5 nM

C[C@H](N)C(=O)N[C@@H](CCCNC(=N)N)C(=O)N[C@@H](CC1CC1)C(=O)N[C@@H](Cc1ccccc1)C(N)=O [analog 8] (H-AR[Ala(cPr)]F-NH2)
fold less active than the lead Manse-AT (10–13) (IC50, antagonistic effect) [1, 4]: ~1145 fold

C[C@H](N)C(=O)N[C@@H](CCCNC(=N)N)C(=O)NCC(=O)N[C@@H](Cc1ccc(O)cc1)C(N)=O [analog 10] (H-ARGY-NH2)
IC50 [1, 3]: 1 nM

Cc1ccc(C[C@H](NC(=O)CNC(=O)[C@H](CCCNC(=N)N)NC(=O)[C@H](C)N)C(N)=O)cc1 [analog 11] (H-ARG[Phe(4-Me)]-NH2)
IC50 [1, 3]: 8.4 nM

C[C@H](N)C(=O)N[C@@H](CCCNC(=N)N)C(=O)NCC(=O)N[C@@H](Cc1ccc(Cl)cc1)C(N)=O [analog 12] (H-ARG[Phe(4-Cl)]-NH2)
IC50 [1, 3]: 9.4 nM

AMMTARGF-NH2 [Manse-AT (6–13) [Ala^1]]
Stimulation of JH biosynthesis at 10 µM ([2]; concentration of 10 µM, adult female CA in vitro): completely inactive
Stimulation of JH Biosynthesis EC50 (95% CI) [2]: No effect

Ala-Ala-Gly-Phe-NH2 [analog 5, Manse-AT (10–13) analog, Arg replaced with Ala]
Antagonistic Effects on JH Biosynthesis IC50 (95% CI) [1, 5]: no antagonistic effect

Ala-Arg-Gly-Ala-NH2 [analog 9, Manse-AT (10–13) analog, Phe replaced with Ala]
Antagonistic Effects on JH Biosynthesis IC50 (95% CI) [1, 5]: inactive; also recorded: No effect

Ala-Leu-Gly-Phe-NH2 [analog 6, Manse-AT (10–13) analog, Arg replaced with Leu]
Antagonistic Effects on JH Biosynthesis IC50 (95% CI) [1, 5]: no antagonistic effect

Arg-Gly-Phe-NH2 [Manse-AT (11–13), truncated tripeptide analog of Manse-AT]
Antagonistic Effects on JH Biosynthesis IC50 (95% CI) [1, 5]: did not possess any antagonistic effect; also recorded: No effect
Stimulation of JH Biosynthesis EC50 (95% CI) [2]: cannot be calculated; also recorded: No effect
Stimulation of JH Biosynthesis: Stimulation at 1 μM [2]: 8.3 ± 16.4 (9) %

GFKNVEMMTARGF-NH2 [Manse-AT, Manduca sexta allatotropin]
EC50 [2]: 0.9 nM
Stimulation of JH Biosynthesis: Stimulation at 1 μM [2]: 426.6 ± 86.3 (9) %

H-EMMTARGF-NH2 [Manse-AT (6–13)]
EC50 [2]: 18.4 nM
Stimulation of JH Biosynthesis: Stimulation at 1 μM [2]: 600% and 600.5 ± 98.5 (9) %
fold less potent than Manse-AT (EC50, stimulation of JH biosynthesis) [2]: about 20 fold

H-MMTARGF-NH2 [Manse-AT (7–13)]
EC50 [2]: 180 nM and 228 nM
Stimulation of JH Biosynthesis: Stimulation at 1 μM [2]: 232.9% and 232.9 ± 33.7 (9) %
fold less potent than Manse-AT (EC50, stimulation of JH biosynthesis) [2]: 200 fold

H-MTARGF-NH2 [Manse-AT (8–13)]
EC50 [2]: 2490 nM
Stimulation of JH Biosynthesis: Stimulation at 1 μM [2]: 133.1 ± 22.3 (9) %

TARGFa [Manse-AT (9–13), truncated analog of Manse-AT]
Stimulation of JH Biosynthesis EC50 (95% CI) [2]: cannot be calculated; also recorded: No effect
Stimulation of JH Biosynthesis: Stimulation at 1 μM [2]: 10.6 ± 21.0 (11) %
